Columns and labels:
[1] = system: bovine pulmonary artery endothelial cells (BPAEC); assay: Endothelial cell apoptosis (morphology, Hoechst staining, DNA fragmentation); format: cell-based
Protocol: [Bovine pulmonary artery endothelial cells were incubated with various concentrations of TNF-gamma for 48 hours. The apoptosis was assessed by nuclear staining with Hoechst 33342 fluorescence dye (10 mg/ml).] […] [U937 cells were transfected using lipofectamine (following manufacturer's instruction) with 0.2 mg of reporter plasmid (NF-kappaB-SEAP). The transfected U937 cells were collected and added to the 96-well plate ([…]/well) with various concentrated of TNF-gamma. After Incubation at 37° C. for 72 hr, the NF-kappaB activity was measured with luminometer at absorbance of 450 nm.]
Bovine pulmonary artery endothelia cells (BPAEC) were incubated with various concentrations of TNF-gamma for 48 hours. Apoptosis was assessed morphologically and by nuclear staining with Hoechst 33342 fluorescence dye (10 mg/ml) in triplicate. Live and apoptotic cells were scored in four random fields, about 1,000 cells were counted. The DNA fragmentation was analyzed as described previously.
BPAEC were obtained from the American Type Culture Collection (Rockville, Md., USA). The cells were grown in DMEM supplemented with 10% heat-inactivated FCS in a humidified environment of 5% CO2/[…] at 37° C. as previously described (Yue, T. L., et al., Mol. Pharmacol. 51:951-962 (1997)). Cells at a subconfluent density were used. Before experiments, the medium was changed to DMEM contained 2% FCS. BPAEC from passages 17-20 were used in all studies.
To quantify cells undergoing apoptosis, cell monolayers were fixed and stained with Hoechst […] (Molecular probe, Eugene, Oreg., USA) as described previously (Yue, T. L., et al., Mol. Pharmacol. 51:951-962 (1997)). The morphological features of apoptosis (cell shrinkage, chromatin condensation, blebbing, and fragmentation) were monitored by fluorescence microscopy. Transmission electron microscopy study was done as reported previously (Yue, T. L., et al., Mol. Pharmacol. 51:951-962 (1997)).
DNA ladder: Cells treated with vehicle or TNF-gamma-alpha were lysed in lysis buffer containing 100 mM NaCl, 10 mM Tris-HCl, pH 8.0, 2.5 mM EEDTA, 0.5% SDS, and 100 micrograms/ml […]. The lysates were incubated at 55° C. for 16 h. After incubation, the lysates were gently extracted three times with pheno/chloroform/isoamyl alcohol, precipitated in ethanol, treated with DNAse-free RNAse, re-extracted, and precipitated again as described previously. DNA electrophoresis was carried out in 1.8% agarose gels containing ethidium bromide, and DNA fragmentations were visualized under ultraviolet light.
In situ end-labeling (TUNEL): BPAEC were cultured in two-chamber slides (Nunc) and treated with TNF-gamma-alpha for 8 to 24 h. In situ detection of apoptotic cells was performed by using terminal deoxyribonucleotide transferase-mediated dUTP nick end labeling with an ApopTag in situ apoptosis detection kit (Oncor) following the manufacturer's recommendation.
The cells were plated in two-chamber slides. The cells were cotransfected with 0.5 μg/ml of Pegfp-c-1 (Clontech; Li, Y. and Horwitz, M. S. Biotechnology 23:1026-1028) as a fluorescent marker of transfected cells together with 1 μg/ml of either the empty cloning vector pcDNA1 (control) or the dominant-interfering c-Jun mutant pcDNA1-FlagΔ169 (Xia, Z., et al., Science 270:1326-1331 (1995)) using Calphos Maximizer Transfection Kit (Clontech) according to the manufacturer's recommendation. Following transfection, the cells were allowed to recover in complete medium for 24 h. The cells were treated with TNF-gamma-alpha and the number of apoptotic cells was assessed by nuclear staining after fixation as described in Methods.

[2] = system: bFGF-induced corneal neovascularization; assay: Corneal angiogenic assay; format: in vivo, rat
Text: Basic FGF (“bFGF”) has been tested in this corneal angiogenic assay in various research laboratories for a variety of purposes. It has been shown that bFGF can induce significant angiogenesis in corneas (e.g., in rabbits, rats and mice). Based on the previous studies, bFGF was used in our study of TNF-gamma as an angiogenic factor to induce the growth of blood vessels in rat corneas.
An incision, 1-1.5 mm in length, is made in the center of the cornea with a microsurgery scalpel blade.
Starting at the incision, a micropocket is created between the collagenous layers of the corneal stroma with a Castroviego cyclodialysis spatula. This pocket extends to a point 1-2 mm from the capillary bed at the corneal-scleral limbus.
bFGF, which is incorporated 1:1 into non-inflammatory Hydron polymer (available from Interferon Sciences, New Brunswick, N.J.), is implanted into the pocket.
Five or seven days after corneal implantation, corneal blood perfusion with colloidal carbon is performed. Corneas are then harvested, fixed, flattened, mounted and photographed for morphology.
An image analysis system (IPLab) is used to quantify the corneal angiogenesis. The corneal surface area, which is covered by the new blood vessels, is quantified and used in our current study. After corneal implantation surgery, TNF-gamma, angiostatin or PBS in a volume of 25 microliters was injected into the conjunctival region adjacent to the implantation site. Based on molarities of TNF-gamma and angiostatin, 10 micrograms of TNF-gamma or 5 micrograms of angiostatin were given respectively four times, once a day, during the first four days post-surgery. TNF-gamma and angiostatin were prepared in PBS.
bFGF was used to induce neovascularization of the cornea from preexisting pericorneal limbal vessels in two different versions of the assay. First, corneas were surgically implanted with hydrogel plugs containing bFGF. […] In a separate study using an alternate version of this assay, both bFGF and treatment protein were co-administered on a nitrocellulose filter disk implanted within the rat corneal stroma. […] In both assays, the surface area of the angiogenic response was quantitated from digital images of treated corneas five days following implantation.

[3] = target: T1, recombinant, untagged TNF-gamma-beta protein (aa 72-251) (human, UniProt O95150 72-251); assay: BIAcore 3000, DR3-Fc immobilised on CM5 chip, TNF-gamma-beta in flow, 1:1 model, three batches
T1 construct: they are put here; also called TL1β; non-tagged TNF-gamma-beta
T1 sequence: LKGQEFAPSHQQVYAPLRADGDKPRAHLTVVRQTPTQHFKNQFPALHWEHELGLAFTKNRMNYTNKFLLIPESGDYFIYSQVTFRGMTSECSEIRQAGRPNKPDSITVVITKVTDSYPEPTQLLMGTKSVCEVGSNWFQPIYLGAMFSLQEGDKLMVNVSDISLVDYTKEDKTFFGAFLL
Protocol: TNFR-Fc were covalently immobilized to the BIAcore sensor chip (CM5 chip) via amine groups using N-ethyl-N′-(dimethylaminopropyl) carbodiimide/N-hydroxysuccinimide chemistry. […] The amount of bound protein was determined during washing of the flow cell with HBS buffer (10 mM HEPES, pH 7.4, 150 mM NaCl, 3.4 mM EDTA, 0.005% Surfactant P20). The flow cell surface was regenerated by displacing bound protein by washing with 20 microliters of 10 mM glycine-HCl, pH 2.3. For kinetic analysis, the on and off rates were determined using the kinetic evaluation program in BIAevaluation 3 software using a 1:1 binding model and the global analysis method.

[4] = target: T2, TNF-gamma-beta (Homo sapiens, UniProt O95150); assay: FACS binding of receptor-Fc proteins to cells expressing full length TNF-gamma-beta
T2 construct: expressed in transfected cells
T2 sequence (O95150 1-251): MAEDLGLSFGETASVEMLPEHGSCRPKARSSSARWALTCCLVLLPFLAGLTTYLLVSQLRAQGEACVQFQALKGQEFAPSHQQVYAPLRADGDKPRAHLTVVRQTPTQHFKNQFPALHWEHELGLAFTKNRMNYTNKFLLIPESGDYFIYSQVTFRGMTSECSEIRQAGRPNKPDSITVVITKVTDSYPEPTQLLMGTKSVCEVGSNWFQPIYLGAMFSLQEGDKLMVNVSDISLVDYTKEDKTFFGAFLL
Protocol: These cells were used to screen the Fc-fusion form of the extracellular domain of TNFR family members, including TNFR1, Fas, HveA, DR3, DR4, DR5, DR6, DcR1, DcR2, TR6, OPG, RANK, AITR, TAC1, CD40, and OX40. […] TR6 has been previously described as a decoy receptor (Pitti et al., Nature 396:699-703 (1998); Yu et al., J. Biol. Chem. 274:13733-6 (1999)) capable of competing with Fas and HveA for binding of FasL and LIGHT, respectively.
Cells resistant to 0.5 mg/ml Genticin (Invitrogen) were selected and expanded. Expression of TNF-gamma-beta mRNA was confirmed by quantitative RT-PCR analysis and surface expression of TNF-gamma-beta protein confirmed by FACS analyses using TNF-gamma-beta monoclonal antibodies.
One million cells, in 0.1 ml of FACS buffer (PBS, 0.1% BSA, 0.1% NaN3), were incubated with 0.1-1 microgram of protein or antibody at RT for 15 min. The cells were washed with 3 ml of FACS buffer, reacted with biotinylated primary antibody, and stained with PE-conjugated secondary antibody at RT for 15 min. Cells were then washed again, resuspended in 0.5 microgram/ml of propidium iodide, and live cells were gated and analyzed on a FACScan using the CellQuest software (BD Biosciences).

**Q.** Which “reduction of TNF-gamma-alpha-induced BPAEC apoptosis” value ([1]; 3 μM) does the source give for C[S+]([O-])c1ccc(-c2nc(-c3ccncc3)c(-c3ccc(F)cc3)[nH]2)cc1 (stereo not drawn) [SB203580, reference compound] here?
**A.** 33%

**Q.** And the “reduction of TNF-gamma-alpha-induced BPAEC apoptosis” value ([1]; 10 μM)?
**A.** 51%

**Q.** ZVAD-fmk [reference compound] was tested. Which “effect of caspase inhibitor on TNF-gamma-alpha-induced BPAEC apoptosis” value ([1]; added 1 h prior to TNF-gamma-alpha, Ac-YYAD-CHO up to 100 μM) did it give?
**A.** attenuated

**Q.** For angiostatin, which “angiogenic process in bFGF-implanted corneas” value ([2]; bFGF (300 ng) implant, conjunctival injection once a day for four days, 10 micrograms TNF-gamma or 5 micrograms angiostatin, seven days after surgery, vs PBS) is on record?
**A.** significantly slowed down the angiogenic process

**Q.** And the “maximal decrease in rat corneal neovascularization induced by bFGF” value ([2]; comparison of TNF-gamma-beta and angiostatin)?
**A.** similar

**Q.** What about the “vessel growth in PBS-implanted corneas” value ([2]; multiple conjunctival injections) of the same molecule?
**A.** no obvious vessel growth

B1: DR3-Fc (extracellular domain of human DR3, aa 1-199, fused to the Fc domain of human IgG1) (Fc fusion, UniProt Q93038 25-199, looked up)
chain: QGGTRSPRCDCAGDFHKKIGLFCCRGCPAGHYLKAPCTEPCGNSTCLVCPQDTFLAWENHHNSECARCQACDEQASQVALENCSAVADTRCGCKPGWFVECQVSQCVSSSPFYCQPCLDCGALHRHTRLLCSRRDTDCGTCLPGFYEHGDGCVSCPTSTLGSCPERCAAVCGWRQ
notes: range 1-199; not shown: Fc domain of human IgG1, fused in-frame to the C-terminus of the receptor part
**Q.** For B1, which Kd [3] is on record?
**A.** 6.45 nM

**Q.** And the kon [3]?
**A.** 639000 M⁻¹ s⁻¹

B2: sTNFR1: Mouse soluble TNF receptor 1 from R&D Systems (protein, UniProt P25118 30-212, looked up)
extracellular domain: LVPSLGDREKRDSLCPQGKYVHSKNNSICCTKCHKGTYLVSDCPSPGRDTVCRECEKGTFTASQNYLRQCLSCKTCRKEMSQVEISPCQADKDTVCGCKENQFQRYLSETHFQCVDCSPCFNGTVTIPCKETQNTVCNCHAGFFLRESECVPCSHCKKNEECMKLCLPPPLANVTNPQDSGTA
modifications: extracellular domain
notes: Mouse soluble TNF receptor 1 from R&D Systems
**Q.** For B2, which “effect on TNF-gamma-alpha-induced apoptosis” value ([1]; BPAEC) is on record?
**A.** Neither sTNFR1 nor sTNFR2 showed effect

**Q.** What about the “effect on TNFa-induced apoptosis” value ([1]; BPAEC, same condition) of the same molecule?
**A.** reduced by sTNFR1 significantly

B3: HveA-Fc: extracellular domain of HveA (aa 1-192) fused to Fc of human IgG1 (protein)
chain: LPSCKEDEYPVGSECCPKCSPGYRVKEACGELTGTVCEPCPPGTYIAHLNGLSKCLQCQMCDPAMGLRASRNCSRTENAVCGCSPGHFCIVQDGDHCAACRAYATSSPGQRVQKGGTESQDTLCQNCPPGTFSPNGTLEECQHQTKCSWLVTKA
modifications: left off: a dimerising Fc or GST
notes: extracellular domain of HveA (aa 1-192) fused to Fc of human IgG1
**Q.** B3 was tested. Which “binding to cells expressing TNF-gamma-beta (FACS)” value [4] did it give?
**A.** did not bind

B4: TR6: non-tagged TNFR-6 alpha (DcR3) decoy receptor protein (protein)
chain: VAETPTYPWRDAETGERLVCAQCPPGTFVQRPCRRDSPTTCGPCPPRHYTQFWNYLERCRYCNVLCGEREEEARACHATHNRACRCRTGFFAHAGFCLEHASCPPGAGVIAPGTPSQNTQCQPCPPGTFSASSSSSEQCQPHRNCTALGLALNVPGSSSHDTLCTSCTGFPLSTRVPGAEECERAVIDFVAFQDISIKRLQRLLQALEAPEGWGPTPRAGRAALQLKLRRRLTELLGAQDGALLVRLLQALRVARMPGLERSVRERFLPVH
**Q.** Which “competition with DR3-Fc for binding to TNF-gamma-beta expressing cells” value ([4]; 2:1 molar ratio of non-tagged TR6 and DR3-Fc) does the source give for B4 here?
**A.** no binding of DR3-Fc was detected

Source: patent US20030129189A1, “Tumor necrosis factor-gamma” (priority 1994, published 2003)
